The subject of one test is T. brucei. Put plainly: Growth inhibition assay of T. brucei cell cultures (Alamar Blue, 48 h). In kind it is cell-based.
The target in the next test is MetRS (T. brucei) (Trypanosoma brucei brucei, UniProt Q38C91). Put plainly: MetRS (T. brucei) ATP depletion assay using Kinase-Glo. In kind it is biochemical. For orientation: Kinase-Glo measures the ATP left after a reaction by luminescence.
[1] abbreviates: Trypanosoma brucei; read-out: B) T. brucei EC50.

Molecules are shown by their SMILES. Where “and” joins values, the source holds several entries; their conditions need not be identical. Equal entries are not always repeated. Where two headings read alike, the source gives them in different places. Bounds are passed on as bounds.

MetRS (T. brucei), sequence (Q38C91 entry or part of it): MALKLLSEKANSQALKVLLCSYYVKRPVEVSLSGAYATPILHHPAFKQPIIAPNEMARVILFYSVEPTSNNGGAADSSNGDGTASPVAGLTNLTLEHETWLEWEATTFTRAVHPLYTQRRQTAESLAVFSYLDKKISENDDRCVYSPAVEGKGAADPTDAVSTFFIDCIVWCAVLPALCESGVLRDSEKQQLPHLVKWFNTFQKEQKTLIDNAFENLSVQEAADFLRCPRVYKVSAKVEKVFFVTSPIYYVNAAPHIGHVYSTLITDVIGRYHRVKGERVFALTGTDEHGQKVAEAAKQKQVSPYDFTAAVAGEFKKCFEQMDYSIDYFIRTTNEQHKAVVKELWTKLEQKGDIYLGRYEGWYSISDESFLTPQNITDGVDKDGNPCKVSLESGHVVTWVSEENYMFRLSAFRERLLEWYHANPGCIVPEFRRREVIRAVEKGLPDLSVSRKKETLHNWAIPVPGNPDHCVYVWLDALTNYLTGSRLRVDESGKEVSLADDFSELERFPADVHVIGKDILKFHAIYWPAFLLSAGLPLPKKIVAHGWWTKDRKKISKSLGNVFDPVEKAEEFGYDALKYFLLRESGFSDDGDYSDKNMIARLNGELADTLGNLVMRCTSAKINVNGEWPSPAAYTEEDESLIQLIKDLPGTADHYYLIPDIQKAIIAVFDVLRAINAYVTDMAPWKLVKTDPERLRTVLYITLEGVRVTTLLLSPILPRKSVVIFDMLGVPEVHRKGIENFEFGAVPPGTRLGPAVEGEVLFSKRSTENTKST

For the molecule `O=C(Cc1cc(Cl)cc(Cl)c1)N1CCC[C@@H](c2nc3cc(Cl)ccc3[nH]2)C1` [Compound 1757, (R)-1-(3-(5-chloro-1H-benzo[d]imidazol-2-yl)piperidin-1-yl)-2-(3,5-dichlorophenyl)ethanone], the concentration for a half-maximal effect (EC50) – broadly, the concentration needed to bring the measured effect to its halfway point – in the test with T. brucei (setting [1]) was over 10 µM. For the same molecule, it took 3.5 µM to reach half-maximal inhibition against MetRS (T. brucei) (IC50).
Take `O=C(Nc1cc(Cl)cc(Cl)c1)N1CCCC(c2nc3cc(Cl)ccc3[nH]2)C1` (stereo not drawn) [Compound 1759, 3-(5-chloro-1H-benzo[d]imidazol-2-yl)-N-(3,5-dichlorophenyl) piperidine-1-carboxamide]: in the test on T. brucei (setting [1]), the EC50 was over 10 µM. Moreover, the half-inhibitory concentration (IC50) (commonly the midpoint of a concentration-inhibition curve) at MetRS (T. brucei) was over 10 µM.
With `O=C1CN(C(=O)c2ccc3ccccc3c2)CCN1Cc1nc2ccccc2[nH]1` [Compound 1760, 1-((1H-benzo[d]imidazol-2-yl)methyl)-4-(2-naphthoyl)piperazin-2-one], the EC50 with T. brucei (setting [1]) is over 10 µM. For the same molecule, the IC50 against MetRS (T. brucei) is over 10 µM.
As to `O=C(CCNc1ccc(Cl)cc1Cl)NCc1nc2ccccc2[nH]1` [Compound 1763, N-(1H-Benzoimidazol-2-ylmethyl)-3-(2,4-dichloro-phenylamino)-propionamide], the EC50 with T. brucei (setting [1]) was 12.7 µM. The same molecule registered an IC50 at MetRS (T. brucei) of 0.168 µM.
Taken in the same sequence, the figures for `O=C(Cc1nc2cc(Cl)cc(Cl)c2[nH]1)NCc1nc2ccccc2[nH]1` [Compound 1764, N-((1H-benzo[d]imidazol-2-yl)methyl)-2-(5,7-dichloro-1H-benzo[d]imidazol-2-yl)acetamide] were over 20 µM and over 10 µM.
For `O=C(/C=C/Oc1ccc(Cl)cc1Cl)NNc1nc2ccccc2[nH]1` [Compound 1765, (2E)-N′-(1H-1,3-benzodiazol-2-yl)-3-(2,4-dichlorophcnoxy)prop-2-enehydrazide], the EC50 in the test on T. brucei (setting [1]) was over 20 µM. At MetRS (T. brucei), this molecule came in with an IC50 of over 10 µM.
Consider `CNCc1cc(Cl)cc(Cl)c1O/C=C/C(=O)NCc1nc2ccccc2[nH]1` [Compound 1779, (2E)-N-(1H-1,3-benzodiazol-2-ylmethyl)-3-{2,4-dichloro-6-[(methylamino)methyl]phenoxy}prop-2-enamide], for which the EC50 with T. brucei (setting [1]) was over 20 µM. The IC50 against MetRS (T. brucei) is over 10 µM.
Regarding `Clc1cc(Cl)cc(CNCCc2nc3ccc(Cl)nc3[nH]2)c1` [Compound 1780, [2-(5-chloro-3H-imidazo[4,5-b]pyridin-2-yl)-ethyl]-(3,5-dichloro-benzyl)-amine], the EC50 with T. brucei (setting [1]) came out at 1.16 µM; with T. brucei (read-out: B) T. brucei EC50), 1.06 µM. Further, the 50% inhibitory concentration (IC50) at MetRS (T. brucei) was 0.067 µM and 0.036 µM.
Take `O=C(NCc1cc(Cl)cc(Cl)c1)N1CCCC(c2nc3nc(Cl)ccc3[nH]2)C1` (stereo not drawn) [Compound 1785, 3-(5-chloro-1H-imidazo[4,5-b]pyridin-2-yl)-N-(3,5-dichlorobenzyl) piperidine-1-carboxamide]: the EC50 in the test with T. brucei (setting [1]) was over 20 µM. For the same molecule, the concentration for half-maximal inhibition (IC50) against MetRS (T. brucei) is over 10 µM.
Turning to `O=C(Cc1cc(Cl)cc(Cl)c1)NC1CCCC(c2nc3nc(Cl)ccc3[nH]2)C1` (stereo not drawn) [Compound 1786, N-(3-(5-chloro-1H-imidazo[4,5-b]pyridin-2-yl)cyclohexyl)-2-(3,5-dichlorophenyl)acetamide], in the test with T. brucei (setting [1]), the EC50 was found to be 5.67 µM. Further, the IC50 on MetRS (T. brucei) came out at 0.31 µM.
`O=C(Cc1cc(Cl)cc(Cl)c1)N1CCOC(c2nc3nc(Cl)ccc3[nH]2)C1` (stereo not drawn) [Compound 1790, 1-(2-(5-chloro-1H-imidazo[4,5-b]pyridin-2-yl)morpholino)-2-(3,5-dichlorophenyl)ethanone]: the half-maximal effective concentration (EC50) in the test with T. brucei (setting [1]) came to 2.7 µM. Moreover, half-maximal inhibition against MetRS (T. brucei) (IC50) was put at 0.105 µM.
`Nc1nc(Cl)ccc1NC(=O)C1CN(C(=O)Cc2cc(Cl)cc(Cl)c2)CCN1` (stereo not drawn) [Compound 1791, N-(2-amino-6-chloropyridin-3-yl)-4-(2-(3,5-dichlorophenyl)acetyl) piperazine-2-carboxamide]: in the test with T. brucei (setting [1]), the EC50 was over 20 µM. In addition, half-maximal inhibition against MetRS (T. brucei) (IC50) required 8.48 µM.
Taken in the same sequence, the figures for `O=C1N[C@@H](Cc2ccc(Cl)cc2Cl)CN1Cc1nc2ccccc2[nH]1` [Compound 1792, 1-(1H-Benzoimidazol-2-ylmethyl)-4-(2,4-dichloro-benzyl)-imidazolidin-2-one] were 2.68 µM and 0.15 µM.
For `NC(Cc1nc2ccccc2[nH]1)C(=O)NCCc1ccc(Cl)cc1Cl` (stereo not drawn) [Compound 1795, N-(2,4-dichlorophenethyl)-2-amino-3-(1H-benzo[d]imidazol-2-yl)propanamide], the EC50 in the test with T. brucei (setting [1]) came to 12.3 µM. In addition, the 50% inhibitory concentration (IC50) on MetRS (T. brucei) was over 10 µM.
For the molecule `Fc1ccc2[nH]c(C3CCCN(CCc4cc(Cl)cc(Cl)c4)C3)nc2n1` (stereo not drawn) [Compound 1798, 5-fluoro-2-(1-(3,5-dichlorophenethyl)piperidin-3-yl)-1H-imidazo[4,5-b]pyridine], the EC50 with T. brucei (setting [1]) was found to be 1.23 µM. At MetRS (T. brucei), this molecule showed an IC50 of over 10 µM.
Regarding `Fc1ccc2[nH]c(C3CCCC(NCc4cc(Cl)cc(Cl)c4)C3)nc2n1` (stereo not drawn) [Compound 1800, N-(3,5-dichlorobenzyl)-3-(5-fluoro-1H-imidazo[4,5-b]pyridin-2-yl) cyclohexanamine], the EC50 in the test with T. brucei (setting [1]) was 0.961 µM. Also, inhibition against MetRS (T. brucei) was half-maximal at 0.663 µM (IC50).
As for `O=C(NCc1nc2ccccc2[nH]1)C(=O)NCc1ccc(Cl)cc1Cl` [Compound 1802, N1-((1H-benzo[d]imidazol-2-yl)methyl)-N2-(2,4-dichlorobenzyl)oxalamide], the EC50 in the test on T. brucei (setting [1]) was over 20 µM. Besides, at MetRS (T. brucei), inhibition was half-maximal at 4.29 µM (IC50).
On to `O=C(CC(=O)Nc1ccc(Cl)cc1Cl)NCc1nc2ccccc2[nH]1` [Compound 1803, N1-((1H-benzo[d]imidazol-2-yl)methyl)-N3-(2,4-dichlorophenyl)malonamide], for which the half-maximal effective concentration (EC50) in the test with T. brucei (setting [1]) is over 20 µM. At MetRS (T. brucei), this molecule gave an IC50 of over 10 µM.
Take `O=C(Cc1nc2ccc(Cl)cc2[nH]1)NCc1cc(Cl)cc(Cl)c1` [Compound 1804, N-(3,5-dichlorobenzyl)-2-(6-chloro-1H-benzo[d]imidazol-2-yl)acetamide]: the EC50 in the test with T. brucei (setting [1]) came to 15 µM. This molecule also returned an IC50 against MetRS (T. brucei) of 0.389 µM.
With `C[C@H](Cc1nc2ccc(Cl)cc2[nH]1)NCc1cc(Cl)cc(Cl)c1` [Compound 1806, [(2R)-1-(6-chloro-1H-1,3-benzodiazol-2-yl)propan-2-yl][(3,5-dichlorophenyl)methyl]amine], in the test with T. brucei (setting [1]), the EC50 was determined as 3.33 µM. Further, the IC50 at MetRS (T. brucei) is 7.63 µM and 9.88 µM.
In the case of `N[C@@H](COc1ccc(Cl)cc1Cl)C(=O)NCc1nc2ccccc2[nH]1` [Compound 1807, (S)—N-((1H-benzo[d]imidazol-2-yl)methyl)-3-(2,4-dichlorophenoxy)-2-aminopropanamide], in the test with T. brucei (setting [1]), the EC50 was found to be 3.73 µM. At MetRS (T. brucei), this molecule gave an IC50 of 1.55 µM.
Take `CC(=O)N(Cc1ccc(Cl)cc1Cl)C1CCCC(c2nc3nc(Cl)ccc3[nH]2)C1` (stereo not drawn) [Compound 1810, N-(3-(5-chloro-1H-imidazo[4,5-b]pyridin-2-yl)cyclohexyl)-N-(2,4-dichlorobenzyl)acetamide]: in the test on T. brucei (setting [1]), the EC50 turned out to be 4.53 µM. Also, the IC50 on MetRS (T. brucei) was determined as 0.361 µM.
In the case of `Clc1cc(Cl)cc(CN2CCC[C@H](c3nc4cc(Cl)ccc4[nH]3)C2)c1` [Compound 1813, (S)-5-chloro-2-(1-(3,5-dichlorobenzyl)piperidin-3-yl)-1H-benzo[d]imidazole], the EC50 in the test on T. brucei (setting [1]) was determined as 1.38 µM. The molecule also came in with an IC50 against MetRS (T. brucei) of 0.747 µM.
Taken in the same sequence, the figures for `Clc1cc(Cl)cc(CN2CCCC(Cc3nc4nc(Cl)ccc4[nH]3)C2)c1` (stereo not drawn) [Compound 1814, 5-chloro-2-((1-(3,5-dichlorobenzyl)piperidin-3-yl)methyl)-1H-imidazo[4,5-b]pyridine] were 7.21 µM and 3.4 µM.
On to `Clc1cc(Cl)cc(CNC2CCCC(c3nc4ccccc4[nH]3)C2)c1` (stereo not drawn) [Compound 1815, 3-(1H-benzo[d]imidazol-2-yl)-N-(3,5-dichlorobenzyl)cyclohexanamine], for which, in the test with T. brucei (setting [1]), the EC50 came out at 4.09 µM. On MetRS (T. brucei), this molecule returned an IC50 of over 10 µM.
For `CC(=O)N(Cc1cc(Cl)cc(Cl)c1)C1CCCC(c2nc3ccccc3[nH]2)C1` (stereo not drawn) [Compound 1816, N-(3-(1H-benzo[d]imidazol-2-yl)cyclohexyl)-N-(3,5-dichlorobenzyl) acetamide], the EC50 with T. brucei (setting [1]) came out at 8.79 µM. The molecule also showed an IC50 against MetRS (T. brucei) of over 10 µM.
For the molecule `Clc1cc(Cl)cc(CNC2CCCC(c3nc4ncccc4[nH]3)C2)c1` (stereo not drawn) [Compound 1817, N-(3,5-dichlorobenzyl)-3-(1H-imidazo[4,5-b]pyridin-2-yl) cyclohexanamine], the EC50 in the test on T. brucei (setting [1]) came out at 2.06 µM. Further, the IC50 against MetRS (T. brucei) is over 10 µM.
In the case of `CC(=O)N(Cc1cc(Cl)cc(Cl)c1)C1CCCC(c2nc3ncccc3[nH]2)C1` (stereo not drawn) [Compound 1818, N-(3-(1H-imidazo[4,5-b]pyridin-2-yl)cyclohexyl)-N-(3,5-dichlorobenzyl) acetamide], the EC50 in the test on T. brucei (setting [1]) is over 20 µM. The molecule also yielded an IC50 against MetRS (T. brucei) of 7.95 µM.
Regarding `CC(Cc1nc2ccccc2[nH]1)NCc1cc(Cl)cc(Cl)c1` (stereo not drawn) [Compound 1819, [1-(1H-1,3-benzodiazol-2-yl)propan-2-yl][(3,5-dichlorophenyl)methyl]amine], the EC50 in the test with T. brucei (setting [1]) is 8.9 µM. In addition, the IC50 against MetRS (T. brucei) was 7.23 µM.
Turning to `Cc1ccc2nc(CC(C)NCc3cc(Cl)cc(Cl)c3)[nH]c2c1` (stereo not drawn) [Compound 1820, [(3,5-dichlorophenyl)methyl][1-(6-methyl-1H-1,3-benzodiazol-2-yl)propan-2-yl]amine], in the test on T. brucei (setting [1]), the EC50 is 3.14 µM. The molecule further came in with a half-inhibitory concentration (IC50) at MetRS (T. brucei) of 0.29 µM.
For `CC(Cc1nc2ccc(Br)cc2[nH]1)NCc1cc(Cl)cc(Cl)c1` (stereo not drawn) [Compound 1821, [1-(6-bromo-1H-1,3-benzodiazol-2-yl)propan-2-yl][(3,5-dichlorophenyl)methyl]amine], in that order: 1.67 µM and 0.054 µM.
With `CC(Cc1nc2cc(Cl)c(Cl)cc2[nH]1)NCc1cc(Cl)cc(Cl)c1` (stereo not drawn) [Compound 1822, [1-(5,6-dichloro-1H-1,3-benzodiazol-2-yl)propan-2-yl][(3,5-dichlorophenyl)methyl]amine], the EC50 with T. brucei (setting [1]) stood at 3.57 µM. The same molecule gave an IC50 at MetRS (T. brucei) of 1.49 µM.
For `CC(Cc1nc2c(Cl)cc(Cl)cc2[nH]1)NCc1cc(Cl)cc(Cl)c1` (stereo not drawn) [Compound 1823, [1-(4,6-dichloro-1H-1,3-benzodiazol-2-yl)propan-2-yl][(3,5-dichlorophenyl)methyl]amine], in that order: 4.56 µM and 2.29 µM.
Regarding `CC(Cc1nc2cc(F)c(Cl)cc2[nH]1)NCc1cc(Cl)cc(Cl)c1` (stereo not drawn) [Compound 1824, [1-(6-chloro-5-fluoro-1H-1,3-benzodiazol-2-yl)propan-2-yl][(3,5-dichlorophenyl)methyl]amine], in the test on T. brucei (setting [1]), the EC50 was 2.24 µM. The same molecule returned a half-maximal inhibitory concentration (IC50) on MetRS (T. brucei) of 0.16 µM.
